# Data published in patent publication US20090018134A1, “Compounds - 945” (AstraZeneca AB, priority 2007, published 2009).
# Target: T1, mTOR (Homo sapiens, UniProt P42345)
# T1 construct: FLAG; made in house
# Experiment: In Vitro mTOR Kinase Assay (Echo), Test (a)(ii)
# Type: biochemical
# Conditions: table of enzyme assay Test (a)(ii); read-out: Test (a)(ii) IC50
# Method in brief: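 AlphaScreen read-out: biotinylated substrate phosphorylation was detected with anti-p70 S6K (T389) 1A5 antibody, Protein A acceptor and streptavidin donor beads after overnight dark incubation at room temperature. Enzyme was FLAG-mTOR 1362-2549 from stable HEK293 cells.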
# T1 sequence (P42345 1362-2549): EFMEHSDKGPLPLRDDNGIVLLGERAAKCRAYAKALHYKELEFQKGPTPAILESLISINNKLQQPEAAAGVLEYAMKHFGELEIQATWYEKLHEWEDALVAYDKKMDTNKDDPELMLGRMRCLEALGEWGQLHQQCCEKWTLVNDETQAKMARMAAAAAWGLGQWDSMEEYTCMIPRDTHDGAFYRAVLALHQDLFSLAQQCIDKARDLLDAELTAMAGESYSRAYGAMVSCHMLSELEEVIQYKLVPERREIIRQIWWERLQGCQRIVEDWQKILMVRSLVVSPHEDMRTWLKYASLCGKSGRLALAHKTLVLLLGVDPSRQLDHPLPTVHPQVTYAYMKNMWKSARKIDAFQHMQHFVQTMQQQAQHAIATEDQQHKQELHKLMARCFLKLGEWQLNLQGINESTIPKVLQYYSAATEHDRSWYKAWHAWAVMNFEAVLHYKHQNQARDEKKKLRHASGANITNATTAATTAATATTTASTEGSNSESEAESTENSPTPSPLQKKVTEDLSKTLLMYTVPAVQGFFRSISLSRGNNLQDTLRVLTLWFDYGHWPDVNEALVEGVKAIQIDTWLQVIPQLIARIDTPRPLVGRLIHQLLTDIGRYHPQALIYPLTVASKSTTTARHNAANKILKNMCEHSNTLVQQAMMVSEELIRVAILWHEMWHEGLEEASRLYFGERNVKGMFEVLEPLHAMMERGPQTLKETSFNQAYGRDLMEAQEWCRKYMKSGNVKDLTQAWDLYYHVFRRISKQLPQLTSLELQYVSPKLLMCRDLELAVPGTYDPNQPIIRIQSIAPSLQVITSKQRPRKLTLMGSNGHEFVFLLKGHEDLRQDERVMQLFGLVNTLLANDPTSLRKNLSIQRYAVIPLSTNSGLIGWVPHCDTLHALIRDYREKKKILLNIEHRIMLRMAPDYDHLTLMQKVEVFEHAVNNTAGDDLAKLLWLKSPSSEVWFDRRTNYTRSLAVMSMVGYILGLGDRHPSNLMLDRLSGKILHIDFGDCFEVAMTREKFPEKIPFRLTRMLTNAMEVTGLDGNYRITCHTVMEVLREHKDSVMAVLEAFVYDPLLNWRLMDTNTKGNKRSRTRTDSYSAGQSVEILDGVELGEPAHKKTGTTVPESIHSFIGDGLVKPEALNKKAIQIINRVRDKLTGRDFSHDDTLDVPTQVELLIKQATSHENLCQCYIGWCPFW
row,Compound,IC50 [nM]
1,"CC[C@H]1COCCN1c1cc(C2(S(C)(=O)=O)CC2)nc(-c2ccc(NC(=O)NCC(F)F)cc2)n1 [Example 84d, 3-(2,2-difluoroethyl)-1-[4-[4-[(3S)-3-ethylmorpholin-4-yl]-6-(1-methylsulfonylcyclopropyl)pyrimidin-2-yl]phenyl]urea]",9.59
2,"CC[C@H]1COCCN1c1cc(C2(S(C)(=O)=O)CC2)nc(-c2ccc(NC(=O)Nc3cnn(C)c3)cc2)n1 [Example 84f, 1-[4-[4-[(3S)-3-ethylmorpholin-4-yl]-6-(1-methylsulfonylcyclopropyl)pyrimidin-2-yl]phenyl]-3-(1-methylpyrazol-4-yl)urea]",13.4
3,"CCNC(=O)Nc1ccc(-c2nc(N3CCOC[C@@H]3C)cc(C3(S(=O)(=O)c4ccc(C(N)=O)cc4Cl)CC3)n2)cc1 [Example 85a, 3-chloro-4-[1-[2-[4-(ethylcarbamoylamino)phenyl]-6-[(3S)-3-methylmorpholin-4-yl]pyrimidin-4-yl]cyclopropyl]sulfonylbenzamide]",3.13
4,"C[C@H]1COCCN1c1cc(C2(S(=O)(=O)c3ccc(C(N)=O)cc3Cl)CC2)nc(-c2ccc(NC(=O)NCCF)cc2)n1 [Example 85c, 3-chloro-4-[1-[2-[4-(2-fluoroethylcarbamoylamino)phenyl]-6-[(3S)-3-methylmorpholin-4-yl]pyrimidin-4-yl]cyclopropyl]sulfonylbenzamide]",5.09
5,"C[C@H]1COCCN1c1cc(C2(S(=O)(=O)c3ccc(C(N)=O)cc3Cl)CC2)nc(-c2ccc(NC(=O)NCCO)cc2)n1 [Example 85d, 3-chloro-4-[1-[2-[4-(2-hydroxyethylcarbamoylamino)phenyl]-6-[(3S)-3-methylmorpholin-4-yl]pyrimidin-4-yl]cyclopropyl]sulfonylbenzamide]",3.23
6,"CCNC(=O)Nc1ccc(-c2nc(N3CCOC[C@@H]3C)cc(C3(S(=O)(=O)c4ccc(C#N)cc4Cl)CC3)n2)cc1 [Example 85f, 3-[4-[4-[1-(2-chloro-4-cyanophenyl)sulfonylcyclopropyl]-6-[(3S)-3-methylmorpholin-4-yl]pyrimidin-2-yl]phenyl]-1-ethylurea]",20.2
7,"C[C@H]1COCCN1c1cc(C2(S(=O)(=O)c3ccc(C#N)cc3Cl)CC2)nc(-c2ccc(NC(=O)NC3CC3)cc2)n1 [Example 85g, 1-[4-[4-[1-(2-chloro-4-cyanophenyl)sulfonylcyclopropyl]-6-[(3S)-3-methylmorpholin-4-yl]pyrimidin-2-yl]phenyl]-3-cyclopropylurea]",25.9
8,"C[C@H]1COCCN1c1cc(C2(S(=O)(=O)c3ccc(C#N)cc3Cl)CC2)nc(-c2ccc(NC(=O)NCCF)cc2)n1 [Example 85i, 1-[4-[4-[1-(2-chloro-4-cyanophenyl)sulfonylcyclopropyl]-6-[(3S)-3-methylmorpholin-4-yl]pyrimidin-2-yl]phenyl]-3-(2-fluoroethyl)urea]",15.3
9,"C[C@H]1COCCN1c1cc(C2(S(=O)(=O)c3ccc(C#N)cc3Cl)CC2)nc(-c2ccc(NC(=O)NCCO)cc2)n1 [Example 85j, 1-[4-[4-[1-(2-chloro-4-cyanophenyl)sulfonylcyclopropyl]-6-[(3S)-3-methylmorpholin-4-yl]pyrimidin-2-yl]phenyl]-3-(2-hydroxyethyl)urea]",12.4
10,"CCNC(=O)Nc1ccc(-c2nc(N3CCOC[C@@H]3C)cc(C3(S(=O)(=O)c4c(F)cccc4F)CC3)n2)cc1 [Example 86a, 1-[4-[4-[1-(2,6-difluorophenyl)sulfonylcyclopropyl]-6-[(3S)-3-methylmorpholin-4-yl]pyrimidin-2-yl]phenyl]-3-ethylurea]",5.22
11,"C[C@H]1COCCN1c1cc(C2(S(=O)(=O)c3c(F)cccc3F)CC2)nc(-c2ccc(NC(=O)NC3CC3)cc2)n1 [Example 86b, 3-cyclopropyl-1-[4-[4-[1-(2,6-difluorophenyl)sulfonylcyclopropyl]-6-[(3S)-3-methylmorpholin-4-yl]pyrimidin-2-yl]phenyl]urea]",7.25
12,"C[C@H]1COCCN1c1cc(C2(S(=O)(=O)c3c(F)cccc3F)CC2)nc(-c2ccc(NC(=O)NCCO)cc2)n1 [Example 86c, 1-[4-[4-[1-(2,6-difluorophenyl)sulfonylcyclopropyl]-6-[(3S)-3-methylmorpholin-4-yl]pyrimidin-2-yl]phenyl]-3-(2-hydroxyethyl)urea]",2.47
13,"C[C@H]1COCCN1c1cc(C2(S(=O)(=O)c3c(F)cccc3F)CC2)nc(-c2ccc(NC(=O)NCC(F)F)cc2)n1 [Example 86e, 3-(2,2-difluoroethyl)-1-[4-[4-[1-(2,6-difluorophenyl)sulfonylcyclopropyl]-6-[(3S)-3-methylmorpholin-4-yl]pyrimidin-2-yl]phenyl]urea]",2.23
14,"C[C@H]1COCCN1c1cc(C2(S(=O)(=O)c3c(F)cccc3F)CC2)nc(-c2ccc(NC(=O)Nc3cnn(C)c3)cc2)n1 [Example 86f, 1-[4-[4-[1-(2,6-difluorophenyl)sulfonylcyclopropyl]-6-[(3S)-3-methylmorpholin-4-yl]pyrimidin-2-yl]phenyl]-3-(1-methylpyrazol-4-yl)urea]",3.45
15,"CCS(=O)(=O)C1(c2cc(N3CCOC[C@@H]3C)nc(-c3ccc(NC(=S)NCCCO)cc3)n2)CCC1 [Example 88, 1-[4-[4-(1-Ethylsulfonylcyclobutyl)-6-[(3S)-3-methylmorpholin-4-yl]pyrimidin-2-yl]phenyl]-3-(3-hydroxypropyl)thiourea]",32.1

# The next lines start with the values.
row,IC50 [nM],Compound
1,8.18,"CCNC(=O)Nc1ccc(-c2nc(N3CCOC[C@@H]3CC)cc(C3(S(C)(=O)=O)CC3)n2)cc1 [Example 84e, 3-ethyl-1-[4-[4-[(3S)-3-ethylmorpholin-4-yl]-6-(1-methylsulfonylcyclopropyl)pyrimidin-2-yl]phenyl]urea]"
2,4.77,"CNC(=O)Nc1ccc(-c2nc(N3CCOC[C@@H]3C)cc(C3(S(=O)(=O)c4ccc(C(N)=O)cc4Cl)CC3)n2)cc1 [Example 85, 3-Chloro-4-[1-[2-[4-(methylcarbamoylamino)phenyl]-6-[(3S)-3-methylmorpholin-4-yl]pyrimidin-4-yl]cyclopropyl]sulfonylbenzamide]"
3,5.26,"C[C@H]1COCCN1c1cc(C2(S(=O)(=O)c3ccc(C(N)=O)cc3Cl)CC2)nc(-c2ccc(NC(=O)NC3CC3)cc2)n1 [Example 85b, 3-chloro-4-[1-[2-[4-(cyclopropylcarbamoylamino)phenyl]-6-[(3S)-3-methylmorpholin-4-yl]pyrimidin-4-yl]cyclopropyl]sulfonylbenzamide]"
4,18.3,"CNC(=O)Nc1ccc(-c2nc(N3CCOC[C@@H]3C)cc(C3(S(=O)(=O)c4ccc(C#N)cc4Cl)CC3)n2)cc1 [Example 85e, 1-[4-[4-[1-(2-chloro-4-cyanophenyl)sulfonylcyclopropyl]-6-[(3S)-3-methylmorpholin-4-yl]pyrimidin-2-yl]phenyl]-3-methylurea]"
5,42.6,"C[C@H]1COCCN1c1cc(C2(S(=O)(=O)c3ccc(C#N)cc3Cl)CC2)nc(-c2ccc(NC(=O)NCC(F)F)cc2)n1 [Example 85h, 1-[4-[4-[1-(2-chloro-4-cyanophenyl)sulfonylcyclopropyl]-6-[(3S)-3-methylmorpholin-4-yl]pyrimidin-2-yl]phenyl]-3-(2,2-difluoroethyl)urea]"
6,2.47,"CNC(=O)Nc1ccc(-c2nc(N3CCOC[C@@H]3C)cc(C3(S(=O)(=O)c4c(F)cccc4F)CC3)n2)cc1 [Example 86, 1-[4-[4-[1-(2,6-Difluorophenyl)sulfonylcyclopropyl]-6-[(3S)-3-methylmorpholin-4-yl]pyrimidin-2-,yl]phenyl]-3-methylurea]"
7,3.82,"C[C@H]1COCCN1c1cc(C2(S(=O)(=O)c3c(F)cccc3F)CC2)nc(-c2ccc(NC(=O)NCCF)cc2)n1 [Example 86d, 1-[4-[4-[1-(2,6-difluorophenyl)sulfonylcyclopropyl]-6-[(3S)-3-methylmorpholin-4-yl]pyrimidin-2-yl]phenyl]-3-(2-fluoroethyl)urea]"
8,4.87,"CCS(=O)(=O)C1(c2cc(N3CCOC[C@@H]3C)nc(-c3ccc(NC(=O)NCCO)cc3)n2)CCC1 [Example 87, 1-[4-[4-(1-Ethylsulfonylcyclobutyl)-6-[(3S)-3-methylmorpholin-4-yl]pyrimidin-2-yl]phenyl]-3-(2-hydroxyethyl)urea]"
9,88.7,"CCS(=O)(=O)C1(c2cc(N3CCOC[C@@H]3C)nc(-c3ccc(NC(=O)NCc4ncc[nH]4)cc3)n2)CCC1 [Example 87a, 1-[4-[4-(1-ethylsulfonylcyclobutyl)-6-[(3S)-3-methylmorpholin-4-yl]pyrimidin-2-yl]phenyl]-3-(1H-imidazol-2-ylmethyl)urea]"
10,17.7,"CCS(=O)(=O)C1(c2cc(N3CCOC[C@@H]3C)nc(-c3ccc(NC(=O)NCCCO)cc3)n2)CCC1 [Example 87b, 1-[4-[4-(1-ethylsulfonylcyclobutyl)-6-[(3S)-3-methylmorpholin-4-yl]pyrimidin-2-yl]phenyl]-3-(3-hydroxypropyl)urea]"
11,7.75,"CCS(=O)(=O)C1(c2cc(N3CCOC[C@@H]3C)nc(-c3ccc(NC(=O)NC)cc3)n2)CCC1 [Example 87c, 1-[4-[4-(1-ethylsulfonylcyclobutyl)-6-[(3S)-3-methylmorpholin-4-yl]pyrimidin-2-yl]phenyl]-3-methylurea]"
12,17.7,"CCS(=O)(=O)C1(c2cc(N3CCOC[C@@H]3C)nc(-c3ccc(NC(=O)NC(C)(C)CO)cc3)n2)CCC1 [Example 87d, 1-[4-[4-(1-ethylsulfonylcyclobutyl)-6-[(3S)-3-methylmorpholin-4-yl]pyrimidin-2-yl]phenyl]-3-(1-hydroxy-2-methylpropan-2-yl)urea]"
13,10.3,"CCS(=O)(=O)C1(c2cc(N3CCOC[C@@H]3C)nc(-c3ccc(NC(=O)N[C@@H](C)CO)cc3)n2)CCC1 [Example 87e, 1-[4-[4-(1-ethylsulfonylcyclobutyl)-6-[(3S)-3-methylmorpholin-4-yl]pyrimidin-2-yl]phenyl]-3-[(2S)-1-hydroxypropan-2-yl]urea]"
14,9.07,"CCS(=O)(=O)C1(c2cc(N3CCOC[C@@H]3C)nc(-c3ccc(NC(=O)N[C@H](C)CO)cc3)n2)CCC1 [Example 87f, 1-[4-[4-(1-ethylsulfonylcyclobutyl)-6-[(3S)-3-methylmorpholin-4-yl]pyrimidin-2-yl]phenyl]-3-[(2R)-1-hydroxypropan-2-yl]urea]"
